Earlier results on one molecule are cited in patent publication US20260151341A1, “NOVEL AMORPHOUS ACTIVE PHARMACEUTICAL INGREDIENTS” (DISRUPTIVE PHARMA AB, priority 2020, published 2026).

For this data set the following is noted: mesoporous silica, study referred to by Gupte et al.

Consider `CCC(C)n1ncn(-c2ccc(N3CCN(c4ccc(OCC5COC(Cn6cncn6)(c6ccc(Cl)cc6Cl)O5)cc4)CC3)cc2)c1=O` (stereo not shown) [Itraconazole, itraconazole], for which the “loading at which stabilized by silica” value is recorded as “more than 32 % by weight”.
